Data set [1] is described as follows: In vitro metabolism in rat hepatocytes. Type of data set: in vitro ADME. As to conditions: 20 μg/mL, 37°C, up to 4 hours; only very small amounts of metabolites by LC/MS.
The nature of data set [2]: In vitro metabolism in human hepatocytes. Format: in vitro ADME. The settings on record: 20 μg/mL, 37°C, up to 4 hours; only very small amounts of metabolites by LC/MS.
For another data set, the system named is A3AR. The data set is described as follows: In vitro tissue binding. As to conditions: rat whole brain and testes slices, with and without inhibitors, preliminary.
Data set [3] can be described thus: In vivo biodistribution study in rats. More on the design: species or system rat. As to conditions: for uptake in testes over time: i.v., 15, 60 and 120 min post-injection.
In data set [4] the target is T1, rat A3AR (Rattus norvegicus, UniProt P28647).
T1 sequence (P28647 1-320): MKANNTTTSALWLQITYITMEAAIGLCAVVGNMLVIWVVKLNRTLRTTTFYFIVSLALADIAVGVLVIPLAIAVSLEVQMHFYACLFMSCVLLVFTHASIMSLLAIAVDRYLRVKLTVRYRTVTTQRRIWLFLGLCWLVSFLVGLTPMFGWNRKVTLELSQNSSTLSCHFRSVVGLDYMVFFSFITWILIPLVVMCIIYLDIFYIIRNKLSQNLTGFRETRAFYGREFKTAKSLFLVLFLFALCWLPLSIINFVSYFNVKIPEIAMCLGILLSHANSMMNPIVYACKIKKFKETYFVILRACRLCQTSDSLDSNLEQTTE
The data set is described as follows: Competitive radioligand binding at rat A3AR in CHO cell membranes using [76Br]4. As to conditions: for potency in binding to the rat A3AR: Figures 1A and 1B, [76Br]4 or [76Br]6 as radioligand; for Ki: read-out: Rat Ki, CHO cell membranes, radioligand [76Br]4 0.5 nM, 25°C 60 min.

For data set [5], the target named is T2, human A3AR (Homo sapiens, UniProt P0DMS8).
T2 sequence (P0DMS8 1-318): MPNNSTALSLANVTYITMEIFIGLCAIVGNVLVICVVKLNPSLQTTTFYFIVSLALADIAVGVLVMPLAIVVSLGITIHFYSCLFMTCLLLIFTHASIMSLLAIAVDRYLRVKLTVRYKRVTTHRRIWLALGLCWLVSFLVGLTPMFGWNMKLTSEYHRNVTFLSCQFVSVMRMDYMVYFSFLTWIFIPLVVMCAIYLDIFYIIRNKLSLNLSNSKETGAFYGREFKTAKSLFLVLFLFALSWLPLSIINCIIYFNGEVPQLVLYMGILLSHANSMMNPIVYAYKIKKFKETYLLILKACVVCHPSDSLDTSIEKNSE
As to conditions: for potency at human versus rat A3AR: Figures 1A and 1B; for Ki: read-out: Human Ki, CHO cell membranes, radioligand [76Br]4 0.5 nM, 25°C 60 min.

In data set [6] the target is T1, rat A3AR.
Data set [7] has as its target T2, human A3AR. The settings on record: read-out: Human Ki; CHO cell membranes, radioligand [76Br]MRS5147 6.
The target in data set [8] is T2, human A3AR. The settings on record: cited from earlier work.
Setting [9] is: read-out: Rat Ki, CHO cell membranes, radioligand [76Br]MRS5147 6.

The Ki is a measure of affinity in units of concentration, obtained from inhibition or displacement.

Entries after “also recorded” stand apart in the source; their conditions may differ. Read-outs that look alike come from different tables or passages of the source.

Regarding `CNC(=O)[C@]12C[C@@H]1[C@@H](n1cnc3c(NCc4cccc([76Br])c4)nc(Cl)nc31)[C@H](O)[C@@H]2O` [[^76Br]4, [^76Br](1′R,2′R,3′S,4′R,5′S)-4-{2-chloro-6-[(3-bromophenylmethyl)amino]purin-9-yl}-1-(methylaminocarbonyl)bicyclo[3.1.0]hexane-2,3-diol], in [1], the “metabolic stability in rat hepatocytes” value is listed as “very stable”. Moreover, the “metabolic stability in human hepatocytes” value in [2] is “very stable”. The “specific uptake of radioligand in tissue slices” value with A3AR is “fail to show any specific uptake”. Also, the “organs of primary uptake” value in [3] (i.v., Sprague-Dawley rats, 15-120 min) is “liver and kidneys”.

On to `CCCOC(=O)c1c(-c2ccccc2)nc(CC)c(C(=O)SCC)c1CCC` [MRS1523, 3-propyl-6-ethyl-5-[(ethylthio)carbonyl]-2-phenyl-4-propyl-3-pyridine carboxylate, reference compound], for which the “potency in binding to the rat A3AR” value at rat A3AR [4] is “moderately potent”. The Ki worked out at 939 ± 98 nM on rat A3AR [4], 125 ± 13 nM at human A3AR [5], 2830 ± 520 nM at rat A3AR [6] (setting [9]) and 120 ± 17 nM on human A3AR [7]. Also, the “potency at human versus rat A3AR” value on human A3AR [5] is “more potent at the human A3AR”.

As to `O=C(Cc1ccccc1)Nc1nc2ccc(Cl)cc2c2nc(-c3ccco3)nn12` [MRS1220, N-[9-chloro-2-(2-furanyl)[1,2, 4]triazolo[1,5-c]quinazolin-5-yl]benzeneacetamide], the “potency in binding to the rat A3AR” value at rat A3AR [4] is listed as “ineffective”. Moreover, the Ki on rat A3AR [4] and at rat A3AR [6] (setting [9]) was > 10000 nM in each case.

Consider `O[C@@H]1[C@H](O)[C@@H]2C[C@@H]2[C@H]1n1cnc2c(NCc3cccc([76Br])c3)nc(Cl)nc21` [[^76Br]6, [^76Br](1R,2R,3S,4R,5S)-4-(6-(3-bromobenzylamino)-2-chloro-9H-purin-9-yl)bicyclo[3.1.0]hexane-2,3-diol], for which, in data set [3] (rat), the “uptake in testes over time” value is reported as “continued to increase with time; also recorded: statistically increased relative to the 15 min time point”. Also, in data set [3] (rat, i.v., %ID/g), the “tissue uptake relative to agonist [76Br]4” value is given as “an order of magnitude lower”.

For the compound `O[C@@H]1[C@H](O)[C@@H]2C[C@@H]2[C@H]1n1cnc2c(NCc3cccc(Br)c3)nc(Cl)nc21` [compound 6, (1R,2R,3S,4R,5S)-4-(6-(3-bromobenzylamino)-2-chloro-9H-purin-9-yl)bicyclo[3.1.0]hexane-2,3-diol], in data set [3] (rat), the “uptake in testes over time” value was “increasing uptake in testes”. This compound yielded a Ki at rat A3AR [6] of 5.2 ± 1.8 nM.

As to `CNC(=O)[C@]12C[C@@H]1[C@@H](n1cnc3c(NCc4cccc(Br)c4)nc(Cl)nc31)[C@H](O)[C@@H]2O` [compound 4, (1′R,2′R,3′S,4′R,5′S)-4-{2-chloro-6-[(3-bromophenylmethyl)amino]purin-9-yl}-1-(methylaminocarbonyl)bicyclo[3.1.0]hexane-2,3-diol], on human A3AR [8], the “selectivity in comparison to other AR subtypes” value was “high selectivity”. For the same compound, the inhibitory constant (Ki) on human A3AR [8] (read-out: Ki value at the human A3AR, shown previously, listed as 4 (MRS3581)) is 0.38 nM; at rat A3AR [4] it was 0.9 ± 0.07 nM; at human A3AR [5], 0.63 ± 0.05 nM. Moreover, on human A3AR [5], the “potency at human versus rat A3AR” value is listed as “equally potent”.

(Values after PMC2713098 (Nuclear medicine and biology, 2009).)
